This note sets out measurements from patent publication US20260217662A1, “PROCESSES FOR PREPARING TRIAZOLE GLYCOLATE OXIDASE INHIBITORS” (CANTERO THERAPEUTICS, INC., priority 2020, published 2026).

For this experiment, the target named is T1, human glycolate oxidase (hGO) (Homo sapiens, UniProt Q9UJM8).
T1 construct: His-tag (6 histidines) (N); made in house; host or cells: E. coli BL21 (DE3)
T1 sequence (Q9UJM8 1-370): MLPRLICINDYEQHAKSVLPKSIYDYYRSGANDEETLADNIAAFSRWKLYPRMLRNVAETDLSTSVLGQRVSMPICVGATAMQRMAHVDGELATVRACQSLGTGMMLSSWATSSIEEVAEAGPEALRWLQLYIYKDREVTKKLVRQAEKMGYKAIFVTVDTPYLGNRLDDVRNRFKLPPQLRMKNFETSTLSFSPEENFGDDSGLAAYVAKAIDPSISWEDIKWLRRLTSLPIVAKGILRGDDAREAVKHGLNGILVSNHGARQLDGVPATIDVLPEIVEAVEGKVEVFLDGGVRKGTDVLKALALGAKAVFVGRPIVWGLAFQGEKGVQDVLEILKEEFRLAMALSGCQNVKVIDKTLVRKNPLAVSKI
Nature of the experiment: In vitro inhibition of human glycolate oxidase (enzymatic assay, coupled HRP/Trinder reaction). As to conditions: recombinant hGO, 40 mM glycolic acid, pH 7, activity at 1 minute, read at 515 nm. It counts as biochemical. The text has this: The catalytic reactions used for assaying glycolate oxidase activity in the presence of compounds according to the present disclosure are outlined in FIG. 9. Glycolate oxidase (GO)-catalyzed conversion of glycolate to glyoxylate (top reaction), with the concomitant reduction of the cofactor flavin mononucleotide (FMN), uses molecular oxygen (O2) for recovering its oxidative state, releasing hydrogen peroxide (H2O2). The Trinder reaction (bottom reaction), in which horseradish peroxidase (HRP) uses hydrogen peroxide, 4-aminoantipyrine and a phenol derivative (sulphonated DCIP) to generate a quinoneimine dye that is spectrophotometrically measured.
Human glycolate oxidase (hGO) expression: BL21 (DE3) E. coli transformed with recombinant pET-15b expression vector with the N-terminal His-tag human Hao1 cDNA was grown in LB medium in the presence of 0.1 mg/ml ampicillin. […] Protein were quantified by the bicinchoninic acid (BCA) assay.
Enzymatic assays: Enzymatic activity of hGO was determined in the presence of glycolate as substrate (40 mM glycolic acid) and phosphate buffer (50 mM KPO4, 0.1 mM EDTA, pH 7). The production of glyoxylate was indirectly measured by the quantification of hydrogen peroxide formed during the first oxidation reaction. […] Enzymatic activity was calculated at 1 minute after initiation of the Trinder reaction.

What is called IC50 is the point on the concentration scale where inhibition reaches its midpoint. `O=C(O)c1nn[nH]c1Oc1ccc(-c2ccc(C3CCC(F)(F)C3)cc2)cc1` (centres unmarked) [Ib-1, 5-((4′-(3,3-difluorocyclopentyl)-[1,1′-biphenyl]-4-yl)oxy)-1H-1,2,3-triazole-4-carboxylic acid]: the IC50 was under 100 nM.
Next, `O=C(O)c1nn[nH]c1Oc1ccc(-c2ccc(C3CCC(F)(F)CC3)cc2)cc1` [Ic-1, 5-((4′-(4,4-difluorocyclohexyl)-[1,1′-biphenyl]-4-yl)oxy)-1H-1,2,3-triazole-4-carboxylic acid]: under 100 nM.
